Read-outs that look alike come from different tables or passages of the source.
Target: T1, Sigma-1 receptor (Sig-1R) (Homo sapiens, UniProt Q99720)
T1 construct: gene SIGMAR1; human Sig-1R-GFP stably expressed in Neuro-2A cell membranes
Test: [3H](+)-pentazocine competition radioligand binding, membranes

T1 sequence (Q99720 whole entry): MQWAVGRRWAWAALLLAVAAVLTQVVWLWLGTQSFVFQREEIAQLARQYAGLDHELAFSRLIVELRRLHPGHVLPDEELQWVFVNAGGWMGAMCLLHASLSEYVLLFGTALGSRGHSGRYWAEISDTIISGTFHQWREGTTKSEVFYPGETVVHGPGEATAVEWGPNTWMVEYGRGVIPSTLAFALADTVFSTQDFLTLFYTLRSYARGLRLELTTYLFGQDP

| Ki (read-out: Ki) [µM] | Structure (SMILES) | Ki [µM] |
| --- | --- | --- |
| – | C[N+](C)(C)CCO [Choline] | 525 |
| ~12000 | CC(=O)OCC[N+](C)(C)C [acetylcholine] | – |
| 1320 | C[N+](C)(C)CC(=O)O [betaine] | – |

Source: publication PMC6326163, “Choline Is an Intracellular Messenger Linking Extracellular Stimuli to IP3-Evoked Ca^2+ Signals through Sigma-1 Receptors” (Cell Reports, 2019)
